Patent US12655150B2 (Cedilla Therapeutics, Inc., priority 2021, dated 2026)

System: NCI-H226
Assay: 72H TEAD Proliferation Assay (Cell Titer Glo 2.0)
Assay type: cell-based
Details: Homo sapiens, NCI-H226, 72 h, CTG 2.0, cell line not given (NCI-H226 responsive, NCI-H28 non-responsive)
Method in brief: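 Growth read-out is ATP luminescence (CellTiter-Glo 2.0) after 72 h compound exposure, corrected for no-CTG background and day-0 values, with GI50 from nonlinear regression. Sensitive line NCI-H226 (NF2-deficient); non-responsive NCI-H28 (NF2 wild type) distinguishes TEAD-driven from nonspecific growth inhibition.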

`O=C(O)c1ccc2c(OCC3CC3)cc(-c3ccc(C(F)(F)F)cc3)nc2c1` [I-375, 4-(cyclopropylmethoxy)-2-(4-(trifluoromethyl)phenyl)quinoline-7-carboxylic acid] and `O=C(O)c1ccc2c(OC3CC3)cc(-c3ccc(C(F)(F)F)cc3)nc2c1` [I-395, 4-cyclopropoxy-2-(4-(trifluoromethyl)phenyl)quinoline-7-carboxylic acid] cannot be ordered by GI50: no more than 1 µM for the first, no more than 1 µM for the second.

First: O=C(O)c1ccc2c(c1)nc(N1CCC3(CCCCCC3)C1)c1cccn12 [I-25, 4-(2-Azaspiro[4.6]undecan-2-yl)pyrrolo[1,2-a]quinoxaline-7-carboxylic acid]
Second: O=C(O)c1ccc2c(c1)nc(N1CCCCC1)c1cccn12 [I-2, 4-(Piperidin-1-yl)pyrrolo[1,2-a]quinoxaline-7-carboxylic acid]
The GI50 of the first is lower: 5 to 10 µM for the first, greater than 10 µM for the second.

Compared with `O=C(O)c1ccc2c(c1)nc(-c1ccc(OC(F)F)cc1)c1cccn12` [I-193, 4-(4-(difluoromethoxy)phenyl)pyrrolo[1,2-a]quinoxaline-7-carboxylic acid], `O=C(O)c1ccc2c(c1)nc(-c1ccc(F)cc1)c1cccn12` [I-43, 4-(4-Fluorophenyl)pyrrolo[1,2-a]quinoxaline-7-carboxylic acid] is higher in GI50: 1 to 5 µM for the first, greater than 10 µM for the second.

`C=CC(=O)n1ccc2c(-c3ccc(C(C)(C)C)cc3)nccc21` [I-105, 1-(4-(4-(tert-Butyl)phenyl)-1H-pyrrolo[3,2-c]pyridin-1-yl)prop-2-en-1-one] and `C=CC(=O)NCc1cn2ccnc2c(-c2ccc(C(C)(C)C)cc2)n1` [I-140, N-((8-(4-(tert-butyl)phenyl)imidazo[1,2-a]pyrazin-6-yl)methyl)acrylamide] cannot be ordered by GI50: 1 to 5 µM for the first, no more than 1 µM for the second.

First: O=C(O)c1ccc2c(c1)nc(N1CCC(C(F)F)CC1)c1cccn12 [I-17, 4-(4-(Difluoromethyl)piperidin-1-yl)pyrrolo[1,2-a]quinoxaline-7-carboxylic acid]
Second: CC(C)(C)C1CCN(c2nc3cc(C(=O)O)ccc3n3cccc23)CC1 [I-37, 4-(4-(tert-Butyl)piperidin-1-yl)pyrrolo[1,2-a]quinoxaline-7-carboxylic acid]
The GI50 of the first is lower: 1 to 5 µM for the first, greater than 10 µM for the second.

Compared with `C=CS(=O)(=O)NCc1cn2ccnc2c(-c2ccc(C(C)(C)C)cc2)n1` [I-141, N-((8-(4-(tert-Butyl)phenyl)imidazo[1,2-a]pyrazin-6-yl)methyl)ethenesulfonamide], `CC(C)(C)c1ccc(-c2nc(C(=O)O)cn3ccnc23)cc1` [I-147, 8-(4-(tert-Butyl)phenyl)imidazo[1,2-a]pyrazine-6-carboxylic acid] is higher in GI50: 1 to 5 µM for the first, greater than 10 µM for the second.

First: CC(C)(C)c1ccc(-c2nc3cc(C(=O)O)ccc3n3ccnc23)cc1 [I-58, 4-(4-(tert-Butyl)phenyl)imidazo[1,2-a]quinoxaline-7-carboxylic acid]
Second: CC(C)(C)c1ccc(-c2nc3cc(C(=O)O)ccc3n3nccc23)cc1 [I-117, 4-(4-(tert-Butyl)phenyl)pyrazolo[1,5-a]quinoxaline-7-carboxylic acid]
The GI50 of the first is higher: 5 to 10 µM for the first, 1 to 5 µM for the second.

`Cc1cc(-c2ccc(C(F)(F)F)cc2)nc2cc(C(N)=O)ccc12` [I-258, 4-Methyl-2-(4-(trifluoromethyl)phenyl)quinoline-7-carboxamide] and `Cc1nc(-c2ccc(C(F)(F)F)cc2)nc2cc(C(=O)O)ccc12` [I-435, 4-methyl-2-(4-(trifluoromethyl)phenyl)quinazoline-7-carboxylic acid] fall in the same range of GI50: 1 to 5 µM for the first, 1 to 5 µM for the second.

`COc1cc(-c2ccc(C(F)(F)F)cc2)nc2cc(C(=O)N[C@H](C)CO)ccc12` [I-324, (R)—N-(1-hydroxypropan-2-yl)-4-methoxy-2-(4-(trifluoromethyl)phenyl)quinoline-7-carboxamide] and `COc1cc(-c2ccc(C(F)(F)F)cc2)nc2cc(C(=O)NCC(O)C(F)(F)F)ccc12` (stereo not shown) [I-382, 4-methoxy-N-(3,3,3-trifluoro-2-hydroxypropyl)-2-(4-(trifluoromethyl)phenyl)quinoline-7-carboxamide] cannot be ordered by GI50: no more than 1 µM for the first, 1 to 5 µM for the second.

First: CC(C)(C)c1ccc(-c2nc3cc(C(=O)NCCOCCOCCN)ccc3n3cccc23)cc1 [I-385, N-(2-(2-(2-Aminoethoxy)ethoxy)ethyl)-4-(4-(tert-butyl)phenyl)pyrrolo[1,2-a]quinoxaline-7-carboxamide]
Second: CC(C)(C)c1ccc(-c2nc3cc(C(N)=O)ccc3n3cccc23)cc1 [I-166, 4-(4-(tert-butyl)phenyl)pyrrolo[1,2-a]quinoxaline-7-carboxamide]
The GI50 of the first is higher: 5 to 10 µM for the first, no more than 1 µM for the second.

Compared with `CC(C)(C)N1CCN(c2nc3cc(C(=O)O)ccc3n3cccc23)CC1` [I-20, 4-(4-(tert-Butyl)piperazin-1-yl)pyrrolo[1,2-a]quinoxaline-7-carboxylic acid], `O=C(O)c1ccc2c(c1)nc(C13CC(C(F)(F)F)(C1)C3)c1cccn12` [I-272, 4-(3-(trifluoromethyl)bicyclo[1.1.1]pentan-1-yl)pyrrolo[1,2-a]quinoxaline-7-carboxylic acid] is lower in GI50: greater than 10 µM for the first, 1 to 5 µM for the second.

`CN(C#N)Cc1cn2ccnc2c(-c2ccc(C(F)(F)F)cc2)n1` [I-239, N-methyl-N-((8-(4-(trifluoromethyl)phenyl)imidazo[1,2-a]pyrazin-6-yl)methyl)cyanamide] and `C=CC(=O)NC(C)c1cn2ccnc2c(-c2ccc(C(F)(F)F)cc2)n1` (stereo not shown) [I-172, N-(1-(8-(4-(trifluoromethyl)phenyl)imidazo[1,2-a]pyrazin-6-yl)ethyl)acrylamide] cannot be ordered by GI50: 1 to 5 µM for the first, no more than 1 µM for the second.

`O=C(O)c1ccc2c(c1)nc(-c1ccc(C(F)(F)F)cc1Cl)c1cccn12` [I-53, 4-(2-Chloro-4-(trifluoromethyl)phenyl)pyrrolo[1,2-a]quinoxaline-7-carboxylic acid] and `O=C(O)c1ccc2c(c1)nc(-c1ccc(C(F)(F)F)cc1C(F)(F)F)c1cccn12` [I-199, 4-(2,4-bis(trifluoromethyl)phenyl)pyrrolo[1,2-a]quinoxaline-7-carboxylic acid] fall in the same range of GI50: 1 to 5 µM for the first, 1 to 5 µM for the second.

`O=C(O)c1ccc2c(c1)nc(C1CCC1)c1nccn12` [I-71, 4-Cyclobutylimidazo[1,2-a]quinoxaline-7-carboxylic acid] and `O=C(O)c1ccc2c(c1)nc(-c1ccc(C3(C(F)(F)F)CC3)cc1)c1nccn12` [I-67, 4-(4-(1-(Trifluoromethyl)cyclopropyl)phenyl)imidazo[1,2-a]quinoxaline-7-carboxylic acid] cannot be ordered by GI50: greater than 10 µM for the first, greater than 10 µM for the second.

`COc1cccc([C@H](C)NC(=O)c2ccc3c(C)cc(-c4ccc(C(F)(F)F)cc4)nc3c2)c1` [I-268, (S)—N-(1-(3-methoxyphenyl)ethyl)-4-methyl-2-(4-(trifluoromethyl)phenyl)quinoline-7-carboxamide] and `Cc1cc(-c2ccc(C(F)(F)F)cc2F)nc2cc(C(=O)O)ccc12` [I-87, 2-(2-Fluoro-4-(trifluoromethyl)phenyl)-4-methylquinoline-7-carboxylic acid] cannot be ordered by GI50: no more than 1 µM for the first, no more than 1 µM for the second.

`C=CC(=O)Nc1nc(-c2ccc(C(C)(C)C)cc2)nc2cc(C(=O)O)ccc12` [I-104, 4-Acrylamido-2-(4-(tert-butyl)phenyl)quinazoline-7-carboxylic acid] and `CC(C)(C)c1ccc(-c2cnc3ccc(C(=O)O)cc3n2)cc1` [I-157, 3-(4-(tert-Butyl)phenyl)quinoxaline-6-carboxylic acid] cannot be ordered by GI50: greater than 10 µM for the first, greater than 10 µM for the second.

`C=CC(=O)NCc1cn2ccnc2c(-c2ccc(F)cc2)n1` [I-110, N-((8-(4-fluorophenyl)imidazo[1,2-a]pyrazin-6-yl)methyl)acrylamide] and `C=CC(=O)NCc1cn2ccnc2c(-c2ccc(OC(F)(F)F)cc2)n1` [I-173, N-((8-(4-(trifluoromethoxy)phenyl)imidazo[1,2-a]pyrazin-6-yl)methyl)acrylamide] cannot be ordered by GI50: 1 to 5 µM for the first, no more than 1 µM for the second.

`C=CC(=O)NCc1cn2c(F)ccc2c(-c2ccc(C(C)(C)C)cc2)n1` [I-409, N-((1-(4-(tert-butyl)phenyl)-6-fluoropyrrolo[1,2-a]pyrazin-3-yl)methyl)acrylamide] and `COc1cc2c(-c3ccc(C(C)(C)C)cc3)nc3cc(C(=O)O)ccc3n2c1` [I-180, 4-(4-(tert-butyl)phenyl)-2-methoxypyrrolo[1,2-a]quinoxaline-7-carboxylic acid] cannot be ordered by GI50: no more than 1 µM for the first, no more than 1 µM for the second.

`CC(C)(C)c1ccc(-c2nc3cc(C(=O)NS(C)(=O)=O)ccc3n3cccc23)cc1` [I-123, 4-(4-(tert-Butyl)phenyl)-N-(methylsulfonyl)pyrrolo[1,2-a]quinoxaline-7-carboxamide] and `CC(C)(C)c1ccc(-c2nc3cc(C(=O)NS(=O)(=O)C4CC4)ccc3n3cccc23)cc1` [I-124, 4-(4-(tert-Butyl)phenyl)-N-(cyclopropylsulfonyl)pyrrolo[1,2-a]quinoxaline-7-carboxamide] cannot be ordered by GI50: greater than 10 µM for the first, greater than 10 µM for the second.

`CC[C@H](CO)NC(=O)c1ccc2c(OC)cc(-c3ccc(C(F)(F)F)cc3Cl)nc2c1` [I-341, (R)-2-(2-chloro-4-(trifluoromethyl)phenyl)-N-(1-hydroxybutan-2-yl)-4-methoxyquinoline-7-carboxamide] and `Cc1cc2c(-c3ccc(C(F)(F)F)cc3F)nc3cc(C(=O)O)ccc3n2c1` [I-84, 4-(2-Fluoro-4-(trifluoromethyl)phenyl)-2-methylpyrrolo[1,2-a]quinoxaline-7-carboxylic acid] cannot be ordered by GI50: no more than 1 µM for the first, no more than 1 µM for the second.

`COc1cnc(-c2ccc(C(C)(C)C)cc2)c2nccn12` [I-150, 8-(4-(tert-Butyl)phenyl)-5-methoxyimidazo[1,2-a]pyrazine] and `CC(C)(C)c1ccc(-c2nc(O)cn3ccnc23)cc1` [I-148, 8-(4-(tert-Butyl)phenyl)imidazo[1,2-a]pyrazin-6-ol] cannot be ordered by GI50: greater than 10 µM for the first, greater than 10 µM for the second.

For `O=C(O)c1ccc2c(c1)nc(-c1ccc(C(F)(F)F)cn1)c1cccn12` [I-132, 4-(5-(Trifluoromethyl)pyridin-2-yl)pyrrolo[1,2-a]quinoxaline-7-carboxylic acid], the GI50 was no more than 1 µM.
